Assay results taken from patent publication US20260043061A1, “ENZYMATICALLY MEDIATED REACTIVE CRYSTALLIZATION OF STEVIOL GLYCOSIDES” (Arzeda Corp., priority 2022, published 2026).

Test: Solubility of select steviol glycosides at room temperature
Format: physicochemical
Conditions: in water, some species may not be completely pure
Source text: Pure steviol glycosides are sparingly soluble in water. Solubility measurements may reflect the true thermodynamic solubility or a short-term kinetic solubility. The kinetic solubility value occurs when an isomeric form has been prepared that is not thermodynamically stable at long time scales yet has higher solubility at short times scales. A few steviol glycoside species have a free carboxylic acid group. These species tend to have higher solubility. Nevertheless, steviol glycosides are generally poorly soluble in water, as shown in Table 3 (certain measurements are for species that may not be completely pure).

Compound | Solubility [% wt %]
C=C1C[C@@]23CC[C@H]4[C@@](C)(CCC[C@@]4(C)C(=O)O[C@@H]4O[C@H](CO)[C@@H](O)[C@H](O)[C@H]4O)[C@@H]2CC[C@]1(O[C@@H]1O[C@H](CO)[C@@H](O)[C@H](O[C@@H]2O[C@H](CO)[C@@H](O)[C@H](O)[C@H]2O)[C@H]1O[C@@H]1O[C@H](CO)[C@@H](O)[C@H](O)[C@H]1O)C3 [Reb A, rebaudioside A] | 0.46
rebaudioside C [Reb C] | 0.20
C=C1C[C@@]23CC[C@H]4[C@@](C)(CCC[C@@]4(C)C(=O)O[C@@H]4O[C@H](CO)[C@@H](O)[C@H](O)[C@H]4O)[C@@H]2CC[C@]1(O[C@@H]1O[C@H](CO)[C@@H](O)[C@H](O[C@@H]2O[C@H](CO)[C@@H](O)[C@H](O)[C@H]2O)[C@H]1O[C@@H]1O[C@H](CO)[C@@H](O)[C@H](O)[C@H]1O)C3 [Reb A 97%, rebaudioside A] | 0.80
C=C1C[C@@]23CC[C@H]4[C@@](C)(CCC[C@@]4(C)C(=O)O[C@@H]4O[C@H](CO)[C@@H](O)[C@H](O)[C@H]4O)[C@@H]2CC[C@]1(O[C@@H]1O[C@H](CO)[C@@H](O)[C@H](O[C@@H]2O[C@H](CO)[C@@H](O)[C@H](O)[C@H]2O)[C@H]1O[C@@H]1O[C@H](CO)[C@@H](O)[C@H](O)[C@H]1O)C3 [Reb A hydrate, rebaudioside A] | 0.10
C=C1C[C@@]23CC[C@H]4[C@@](C)(CCC[C@@]4(C)C(=O)O[C@@H]4O[C@H](CO)[C@@H](O)[C@H](O)[C@H]4O)[C@@H]2CC[C@]1(O[C@@H]1O[C@H](CO)[C@@H](O)[C@H](O[C@@H]2O[C@H](CO)[C@@H](O)[C@H](O)[C@H]2O)[C@H]1O[C@@H]1O[C@H](CO)[C@@H](O)[C@H](O)[C@H]1O)C3 [Reb A anhydrous, rebaudioside A] | 0.80

The next lines start with the values.

Solubility [% wt %] | Compound
0.10 | C=C1C[C@@]23CC[C@H]4[C@@](C)(CCC[C@@]4(C)C(=O)O[C@@H]4O[C@H](CO)[C@@H](O)[C@H](O)[C@H]4O[C@@H]4O[C@H](CO)[C@@H](O)[C@H](O)[C@H]4O)[C@@H]2CC[C@]1(O[C@@H]1O[C@H](CO)[C@@H](O)[C@H](O[C@@H]2O[C@H](CO)[C@@H](O)[C@H](O)[C@H]2O)[C@H]1O[C@@H]1O[C@H](CO)[C@@H](O)[C@H](O)[C@H]1O)C3 [Reb D, rebaudioside D]
0.05 | C=C1C[C@@]23CC[C@H]4[C@@](C)(CCC[C@@]4(C)C(=O)O[C@@H]4O[C@H](CO)[C@@H](O)[C@H](O[C@@H]5O[C@H](CO)[C@@H](O)[C@H](O)[C@H]5O)[C@H]4O[C@@H]4O[C@H](CO)[C@@H](O)[C@H](O)[C@H]4O)[C@@H]2CC[C@]1(O[C@@H]1O[C@H](CO)[C@@H](O)[C@H](O[C@@H]2O[C@H](CO)[C@@H](O)[C@H](O)[C@H]2O)[C@H]1O[C@@H]1O[C@H](CO)[C@@H](O)[C@H](O)[C@H]1O)C3 [Reb M, rebaudioside M]
0.44 | C=C1C[C@@]23CC[C@H]4[C@@](C)(CCC[C@@]4(C)C(=O)O[C@@H]4O[C@H](CO)[C@@H](O)[C@H](O)[C@H]4O)[C@@H]2CC[C@]1(O[C@@H]1O[C@H](CO)[C@@H](O)[C@H](O)[C@H]1O[C@@H]1O[C@H](CO)[C@@H](O)[C@H](O)[C@H]1O)C3 [Stevioside, stevioside]
